The structures appear in SMILES notation.

In one assay the target is hJAK2 kinase domain (aa808-end) (Homo sapiens (Human), UniProt O60674). The assay is described as follows: JAK2 activity inhibition, kinase reaction (Test 2). The class given is biochemical.
Sequence of hJAK2 kinase domain (aa808-end) (O60674 808-1132 limits assumed): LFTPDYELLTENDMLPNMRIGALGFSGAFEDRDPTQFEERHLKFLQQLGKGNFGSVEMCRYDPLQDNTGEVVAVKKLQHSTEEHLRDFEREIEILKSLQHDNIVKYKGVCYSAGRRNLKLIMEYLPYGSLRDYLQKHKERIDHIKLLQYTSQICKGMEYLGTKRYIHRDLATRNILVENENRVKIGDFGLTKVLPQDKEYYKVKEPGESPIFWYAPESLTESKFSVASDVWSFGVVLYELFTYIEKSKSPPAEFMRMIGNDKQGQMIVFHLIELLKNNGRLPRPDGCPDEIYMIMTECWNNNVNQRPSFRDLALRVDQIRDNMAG
Settings: not given
By IC50 is commonly meant the concentration that gives 50% inhibition. Take `CC1CN(C(=O)CC#N)C12CCCN(c1ncnc3[nH]ccc13)C2` (single isomer, unassigned) [Compound 2, 3-[3-methyl-6-(7H-pyrrolo[2,3-d]pyrimidin-4-yl)-1,6-diazaspiro[3.5]non-1-yl]-3-oxopropionitrile]: the IC50 stood at 1.7 nM.

For `N#CCC(=O)N1CCCC12CCCN(c1ncnc3[nH]ccc13)C2` (stereo not drawn) [Compound 7, 3-oxo-3-[7-(7H-pyrrolo[2.3-d]pyrimidin-4-yl)-1,7-diazaspiro[4.5]dec-1-yl)propionitrile], the concentration for half-maximal inhibition (IC50) turned out to be 4.7 nM.

The compound `N#CCC(=O)N1CCC12CCCN(c1ncnc3[nH]ccc13)C2` (stereo not drawn) [Compound 3, 3-oxo-3-[6-(7H-pyrrolo[2,3-d]pyrimidin-4-yl)-1,6-diazaspiro[3.5]non-1-yl]-propionitrile] yielded an IC50 of 2.2 nM. `CC1CN(C(=O)CC#N)C12CCCN(c1ncnc3[nH]ccc13)C2` (single isomer, unassigned) [Compound 1, 3-[3-methyl-6-(7H-pyrrolo[2,3-d]pyrimidin-4-yl)-1,6-diazaspiro[3.5]non-1-yl]-3-oxopropionitrile] displayed an IC50 of 1 nM.

On to `N#CCC(=O)N1CC(F)(F)C12CCN(c1ncnc3[nH]ccc13)C2` (stereo not drawn) [Compound 4, 3-[3,3-difluoro-6-(7H-pyrrolo[2,3-d]pyrimidin-4-yl)-1,6-diazaspiro[3.4]oct-1-yl]-3-oxopropionitrile], for which the IC50 is 1.7 nM. Consider `N#CCC(=O)N1CC(F)(F)C12CCCN(c1ncnc3[nH]ccc13)C2` (stereo not drawn) [Compound 5, 3-[3,3-difluoro-6-(7H-pyrrolo[2,3-d]pyrimidin-4-yl)-1,6-diaza-spiro[3.5]non-1-yl]-3-oxo-propionitrile], for which the IC50 amounted to 1.9 nM.

The target in a further assay is hJAK3 kinase domain (aa781-end) (Homo sapiens (Human), UniProt P52333). The assay is described as follows: JAK3 activity inhibition, kinase reaction (Test 1). To be noted: read-out: JAK3 % Inhibition.
Sequence of hJAK3 kinase domain (aa781-end) (P52333 781-1124 limits assumed): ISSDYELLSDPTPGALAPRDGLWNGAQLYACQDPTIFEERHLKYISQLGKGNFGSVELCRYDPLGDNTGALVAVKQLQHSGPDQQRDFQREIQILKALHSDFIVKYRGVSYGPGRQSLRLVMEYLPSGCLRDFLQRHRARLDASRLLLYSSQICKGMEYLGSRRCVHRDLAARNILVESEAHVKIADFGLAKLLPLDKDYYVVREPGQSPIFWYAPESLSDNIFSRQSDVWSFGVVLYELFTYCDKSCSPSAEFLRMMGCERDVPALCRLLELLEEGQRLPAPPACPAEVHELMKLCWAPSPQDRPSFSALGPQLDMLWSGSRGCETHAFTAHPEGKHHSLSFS
Procedure: JAK3 activity inhibitory effects of test compounds were evaluated by the following kinase reactions.
In the kinase reactions, fused proteins (6His tag-fused hJAK3 kinase domain (aa781-end)) which were coexpressed in Sf21 cells and purified by Ni2+/NTA agarose were used.
A well in which ATP was not added was set out as a blank well.
Plates were let stand at room temperature for 10 minutes from starting reactions.
One hour after the addition of the buffer for detection, fluorescence counts of each well were measured by a fluorescence microplate reader.
Data were obtained by deducting the average Ratio of a blank well from Ratio of each well.
The inhibition is the share of the control response that was lost under treatment. For the compound `c1nc(N2CCC3(CCCCN3)C2)c2cc[nH]c2n1` (racemic) [Compound 79], the inhibition at 1 µM was 38%.

`N#CCC(=O)N1CCCC12CCCN(c1c(Cl)cnc3[nH]ncc13)C2` (racemic) [Compound 91]: the inhibition at 1 µM came to 42%.

Consider `CC(=O)N1CCCC12CCN(c1ncnc3[nH]ccc13)C2` (racemic) [Compound 87], for which the inhibition at 1 µM stood at 39%. For `CC1N(c2ncnc3[nH]ccc23)CCC12CCCN2C(=O)CC#N` (stereo not drawn) [Compound 13], the inhibition at 1 µM is 26%. Consider `N#CC1CCN(C(=O)N2CCCC23CCN(c2ncnc4[nH]ccc24)C3)C1` (racemic) [Compound 51], for which the inhibition at 1 µM is 41%. As for `c1nc(N2CCCC3(CCCCCN3)C2)c2cc[nH]c2n1` (racemic) [Compound 75], the inhibition at 1 µM was 1%.

The same assay, now with this note: read-out: JAK3 IC50.
With `CC(=O)O[C@@H](C)C(=O)N1CCCC12CCCN(c1ncnc3[nH]ccc13)C2` (stereo partly drawn) [Compound 47], the IC50 was 110 nM. As to `CC(O)C(=O)N1CCCC12CCCN(c1ncnc3[nH]ccc13)C2` (single isomer, unassigned) [Compound 30], the half-maximal inhibitory concentration (IC50) came out at 580 nM.

`C[C@H](O)C(=O)N1CCCC12CCCN(c1ncnc3[nH]ccc13)C2` (stereo partly drawn) [Compound 43]: the half-maximal inhibitory concentration (IC50) came out at 40 nM. As for `CC1CC2(CCCN(c3ncnc4[nH]ccc34)C2)N1C(=O)CC#N` (stereo not drawn) [Compound 14], the IC50 was 41 nM. On to `CC1N(c2ncnc3[nH]ccc23)CCC12CCCN2C(=O)CC#N` (single isomer, unassigned) [Compound 34], for which the half-maximal inhibitory concentration (IC50) stood at 36 nM.

As for `CO[C@@H](C)C(=O)N1CCCC12CCCN(c1ncnc3[nH]ccc13)C2` (stereo partly drawn) [Compound 45], the IC50 was 270 nM. `CC1CC2(CCCN(c3ncnc4[nH]ccc34)C2)N1C(=O)CC#N` (stereo not drawn) [Compound 20]: the IC50 worked out at 100 nM. Take `CO[C@H](C)C(=O)N1CCCC12CCCN(c1ncnc3[nH]ccc13)C2` (stereo partly drawn) [Compound 46]: the concentration for half-maximal inhibition (IC50) was 270 nM. Consider `CC(O)C(=O)N1CCCC12CCCN(c1ncnc3[nH]ccc13)C2` (single isomer, unassigned) [Compound 35], for which the 50% inhibitory concentration (IC50) came to 530 nM. Regarding `CC1CC2(CCCN2C(=O)CC#N)CN1c1ncnc2[nH]ccc12` (single isomer, unassigned) [Compound 33], the half-inhibitory concentration (IC50) came out at 480 nM. As for `CC1CC2(CCCN2C(=O)CC#N)CN1c1ncnc2[nH]ccc12` (single isomer, unassigned) [Compound 42], the IC50 worked out at 100 nM.

For the compound `CC(O)C(=O)N1CCCC12CCCN(c1ncnc3[nH]ccc13)C2` (single isomer, unassigned) [Compound 36], the IC50 was found to be 150 nM.

These data come from patent publication US20240150367A1, “NITROGEN-CONTAINING SPIRO CYCLIC COMPOUNDS AND PHARMACEUTICAL USE THEREOF” (Japan Tobacco Inc., priority 2009, published 2024).
